“Also recorded” adds a separate entry of the source.
Biological target: skeletal muscle Nav1.4 sodium channels (Homo sapiens, UniProt P35499)
Assay: Dynamic clamp whole cell assay of action potential firing at HEK cells expressing Nav1.4 sodium channels
Assay type: cell-based
Protocol: Twenty-four hours prior to experimentation, cells were dissociated using Versene (EDTA) and plated at 10-12% confluency onto coverslips. The following day the coverslips were placed into the recording chamber and held at 22-25° C. for the duration of the experiments.
Borosilicate glass pipettes (WPI) were used for the whole cell assay. These pipettes were filled with an intracellular solution containing (mM): 10 NaF, 110 CsF, 20 TEA.Cl, 2 ethylene glycol tetraacetic acid and 10 HEPES, with pH adjusted to 7.4 using CsOH and osmolarity adjusted to 310 mosmol/L with sucrose.
The bath solution contained in (mM): 141 NaCl, 4 KCl, 1.0 MgCl2, 1.8 CaCl2, 10 HEPES buffer, and 4 tetraethylammonium (TEA).Cl, with pH adjusted to 7.4 with NaOH and osmolarity adjusted to 310 mosmol/L with sucrose. Bath temperature was controlled using a Warner Instruments (Hamden, Conn.) controller (TC-344B) with inline solution and bath heating.
Electrophysiological recordings were made 10 minutes after establishing whole cell recording. Recordings were made on an EPC-9 patch clamp amplifier (Heka Instruments, Lambrecht, Germany) filtered at 14.4 kHz with >80% series resistance compensation and sampled at 50 kHz. The current monitor output from the EPC-9 was fed into the analogue input channel of a data acquisition card.
The model runs in polling mode using the ode5 fixed time step solver with a step size of 50 μS.
The dynamic clamp system was configured to account for leak conductance, and to also simulate the function of potassium channels, which were not present in the HEK cell.
Following attainment of a whole cell clamp in the HEK cell, a period of 10 minutes was allowed for diffusion of the pipette solution into the intracellular volume of the cell. During this period cells were held at −85 mV.
Control was transferred to the Simulink system and a range of current injections were trialled to achieve a steady state action potential firing of 50-100 Hz (FIG. 8). This firing was stable and continued as long as a stimulating current injection was maintained. […]

Sequence of skeletal muscle Nav1.4 sodium channels (P35499 whole entry): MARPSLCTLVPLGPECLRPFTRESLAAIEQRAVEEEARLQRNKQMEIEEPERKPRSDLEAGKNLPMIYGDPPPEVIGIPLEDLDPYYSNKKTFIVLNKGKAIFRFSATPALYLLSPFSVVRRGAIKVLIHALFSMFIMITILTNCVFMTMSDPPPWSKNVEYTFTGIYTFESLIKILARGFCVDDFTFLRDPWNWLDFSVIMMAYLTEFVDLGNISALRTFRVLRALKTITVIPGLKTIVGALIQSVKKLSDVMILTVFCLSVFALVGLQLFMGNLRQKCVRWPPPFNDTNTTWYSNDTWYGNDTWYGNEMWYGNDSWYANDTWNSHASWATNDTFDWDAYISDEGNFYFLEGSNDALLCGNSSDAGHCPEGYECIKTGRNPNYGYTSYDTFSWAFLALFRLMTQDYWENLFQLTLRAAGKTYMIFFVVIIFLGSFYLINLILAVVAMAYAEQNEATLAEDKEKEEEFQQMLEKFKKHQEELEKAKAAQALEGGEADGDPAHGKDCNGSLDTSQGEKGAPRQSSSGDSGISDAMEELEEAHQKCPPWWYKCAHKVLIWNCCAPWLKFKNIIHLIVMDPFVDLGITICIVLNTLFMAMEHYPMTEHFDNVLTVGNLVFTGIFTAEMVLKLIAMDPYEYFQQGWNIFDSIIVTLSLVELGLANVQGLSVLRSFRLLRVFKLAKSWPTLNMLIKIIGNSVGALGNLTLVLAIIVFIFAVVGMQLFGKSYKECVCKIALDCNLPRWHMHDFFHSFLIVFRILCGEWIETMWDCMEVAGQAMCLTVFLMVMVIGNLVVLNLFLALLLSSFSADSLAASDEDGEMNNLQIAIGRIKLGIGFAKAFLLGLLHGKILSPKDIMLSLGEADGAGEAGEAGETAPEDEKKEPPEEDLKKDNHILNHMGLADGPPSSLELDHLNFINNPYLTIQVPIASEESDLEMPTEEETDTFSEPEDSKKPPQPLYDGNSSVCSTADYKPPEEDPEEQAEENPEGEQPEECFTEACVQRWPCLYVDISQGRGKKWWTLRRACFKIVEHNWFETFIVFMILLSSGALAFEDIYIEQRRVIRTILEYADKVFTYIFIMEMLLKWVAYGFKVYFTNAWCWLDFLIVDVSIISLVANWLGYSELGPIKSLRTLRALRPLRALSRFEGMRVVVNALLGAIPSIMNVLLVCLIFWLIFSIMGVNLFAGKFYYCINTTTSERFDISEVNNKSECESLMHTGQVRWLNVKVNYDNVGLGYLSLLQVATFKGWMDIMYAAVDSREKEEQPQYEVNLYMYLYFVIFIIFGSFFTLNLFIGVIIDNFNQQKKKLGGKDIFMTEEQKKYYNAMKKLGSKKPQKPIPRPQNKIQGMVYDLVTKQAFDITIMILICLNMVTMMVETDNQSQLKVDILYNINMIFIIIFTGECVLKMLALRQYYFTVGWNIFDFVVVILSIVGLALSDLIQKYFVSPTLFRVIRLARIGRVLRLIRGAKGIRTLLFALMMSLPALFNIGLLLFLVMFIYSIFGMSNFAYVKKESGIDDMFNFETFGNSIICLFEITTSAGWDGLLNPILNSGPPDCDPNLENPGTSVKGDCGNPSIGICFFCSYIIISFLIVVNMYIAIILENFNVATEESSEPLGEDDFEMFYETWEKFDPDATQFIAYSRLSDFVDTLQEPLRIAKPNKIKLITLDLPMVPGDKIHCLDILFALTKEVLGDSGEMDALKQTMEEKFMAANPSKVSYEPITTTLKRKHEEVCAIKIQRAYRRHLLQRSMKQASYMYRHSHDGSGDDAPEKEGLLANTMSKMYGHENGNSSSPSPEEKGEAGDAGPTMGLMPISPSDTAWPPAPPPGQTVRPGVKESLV

- number of action potentials elicited by a stimulating current step (continued presence of 50 μM, HEK cells expressing Nav1.4, no further firing would occur): 2-3
Compound: NC(=O)N1c2ccccc2C=Cc2ccccc21 [carbamazepine]
- action potential firing rate (50 μM in bath solution perfused onto HEK cells expressing Nav1.4, steady state firing of 50-100 Hz before compound): decreased the action potential firing rate; also recorded: decrease in action potential firing rate
